# Data taken from patent publication US20150374673A1, “Combination Therapy for the Treatment of Nosocomial Pneumonia” (priority 2013, published 2015).
# Like-named read-outs stand apart in the source and are kept apart here.
# What was measured:
# Assay type in all cases: cell-based
# P. aeruginosa = test: Checkerboard assay, mean FICI
# Procedure: (§1) All MIC determinations including those performed in the checkerboard assay were done in cation-adjusted Mueller-Hinton broth (purchased from Becton Dickinson, Oxford UK).
# (§2) Initial MIC data were determined by microbroth dilution methods as recommended by CLSI (2012b). Checkerboards were made in accordance with the method given by Pillai et. al., ? Antimicrobial Combinations in Antibiotics, LABORATORY MEDICINE (Lorian Ed., 3rd Ed. (2003)) p. 365-440 as per standard microbroth dilution tests but with agents in combination. […] A final avibactam concentration of 4 mg/L was used throughout the study. Antibacterial agents were combined into microtitre plates using the Evolution III liquid handling system.
# (§3) Checkerboard plates were inoculated and incubated in accordance with CLSI guidelines (2012b) at 35±2° C. in ambient air for 16-20 h. MICs were recorded the following day as the lowest concentration or combination of concentrations required to inhibit all visible growth. From the MIC data, FICIs were calculated for each checkerboard according to the method of Meletiadis et. al., Defining Fractional Inhibitory Concentration Index Cutoffs for Additive Interactions Based on Self-Drug Additive Combinations, Monte Carlo Simulation Analysis and in vitro-in vivo Correlation Data for Antifungal Drug Combinations Against Aspergillus fumigatus, AAC 54:602-09 (2010).
# (§4) FICI=FICA+FICB=(CA/MICA)+(CB/MICB)
# (§5) As each checkerboard gives a number of FICI values, an arithmetic mean is calculated from all values to give the mean FICI for two agents combined against one isolate. Mean FICIs were interpreted by the following criteria given by Odds (2003) which are now the accepted criteria by most journals: […]
# E. coli = test: Checkerboard assay, mean FICI
# Procedure: as §1, §2, §3, §4, §5
# E. faecalis = test: Checkerboard assay, mean FICI
# Procedure: as §1, §2, §3, §4, §5
# K. pneumoniae = test: Checkerboard assay, mean FICI
# Procedure: as §1, §2, §3, §4, §5
# E. cloacae = test: Checkerboard assay, mean FICI
# Procedure: as §1, §2, §3, §4, §5
# S. aureus = test: Checkerboard assay, mean FICI
# Procedure: as §1, §2, §3, §4, §5
# Pseudomonas aeruginosa = test: MIC of ceftazidime-resistant P. aeruginosa strains, microdilution according to ISO guidelines
# Procedure: Seven well-characterized ceftazidime-resistant Pseudomonas aeruginosa strains, obtained from a variety of clinically relevant sources, were used in the experiments as shown in Table 1. MICs were taken from an earlier in vitro checkerboard study (Berkhout & Mouton 2013 CAZ-AVI-M1-061) and were determined by microdilution according to the ISO-guidelines (ISO 2006). This method is CLSI compatible.
# Seven well-characterized ceftazidime-resistant Pseudomonas aeruginosa strains, obtained from a variety of clinically relevant sources, were used in the experiments as shown in […]. MICs were determined in an earlier in vitro checkerboard study (AstraZeneca study report # CAZ-AVI-M1-061) and were determined by microdilution according to the ISO-guidelines (ISO 2006). This method is CLSI compatible.
smiles,measurement,setting,value
"CC(C)(O/N=C(\C(=O)N[C@@H]1C(=O)N2C(C(=O)[O-])=C(C[n+]3ccccc3)CS[C@H]12)c1csc(N)n1)C(=O)O [ceftazidime, (6R,7R)-7-[[(2Z)-2-(2-amino-1,3-thiazol-4-yl)-2-(1-hydroxy-2-methyl-1-oxopropan-2-yl)oxyiminoacetyl]amino]-8-oxo-3-(pyridin-1-ium-1-ylmethyl)-5-thia-1-azabicyclo[4.2.0]oct-2-ene-2-carboxylate pentahydrate]",Mean FICI,"P. aeruginosa; with Col, isolate 16 P. aeruginosa Basal MICs",1.24
same,Mean FICI,"P. aeruginosa; with Col, isolate 17 P. aeruginosa Derepressed AmpC",1.21
same,Mean FICI,"P. aeruginosa; with Col, isolate 18 P. aeruginosa Derepressed AmpC",1.23
same,Mean FICI,"P. aeruginosa; with Col, isolate 19 P. aeruginosa PER",1.43
same,Mean FICI,"P. aeruginosa; with Col, isolate 20 P. aeruginosa KPC-2",1.21
same,Mean FICI,"P. aeruginosa; with Col, isolate 21 P. aeruginosa KPC-2",1.34
same,Mean FICI,"P. aeruginosa; with Lev, isolate 16 P. aeruginosa Basal MICs",1.19
same,Mean FICI,"P. aeruginosa; with Lev, isolate 17 P. aeruginosa Derepressed AmpC",1.10
same,Mean FICI,"P. aeruginosa; with Lev, isolate 18 P. aeruginosa Derepressed AmpC",1.21
same,Mean FICI,"P. aeruginosa; with Lev, isolate 19 P. aeruginosa PER",0.99
same,Mean FICI,"P. aeruginosa; with Lev, isolate 20 P. aeruginosa KPC-2",1.13
same,Mean FICI,"P. aeruginosa; with Lev, isolate 21 P. aeruginosa KPC-2",1.12
same,Mean FICI,"P. aeruginosa; with Tig, isolate 16 P. aeruginosa Basal MICs",1.05
same,Mean FICI,"P. aeruginosa; with Tig, isolate 17 P. aeruginosa Derepressed AmpC",1.23
same,Mean FICI,"P. aeruginosa; with Tig, isolate 18 P. aeruginosa Derepressed AmpC",1.15
same,Mean FICI,"P. aeruginosa; with Tig, isolate 19 P. aeruginosa PER",1.13
same,Mean FICI,"P. aeruginosa; with Tig, isolate 20 P. aeruginosa KPC-2",1.40
same,Mean FICI,"P. aeruginosa; with Tig, isolate 21 P. aeruginosa KPC-2",1.23
same,Mean FICI,"P. aeruginosa; with Tob, isolate 16 P. aeruginosa Basal MICs",1.11
same,Mean FICI,"P. aeruginosa; with Tob, isolate 17 P. aeruginosa Derepressed AmpC",1.05
same,Mean FICI,"P. aeruginosa; with Tob, isolate 18 P. aeruginosa Derepressed AmpC",0.89
same,Mean FICI,"P. aeruginosa; with Tob, isolate 19 P. aeruginosa PER",0.70
same,Mean FICI,"P. aeruginosa; with Tob, isolate 20 P. aeruginosa KPC-2",0.97
same,Mean FICI,"P. aeruginosa; with Tob, isolate 21 P. aeruginosa KPC-2",0.97
same,Mean FICI,"E. coli; with Col, isolate 4 E. coli Basal MICs",1.35
same,Mean FICI,"E. coli; with Col, isolate 5 E. coli CTX-M-15",1.23
same,Mean FICI,"E. coli; with Col, isolate 6 E. coli TEM-4",1.26
same,Mean FICI,"E. coli; with Col, isolate 7 E. coli SHV-12",1.66
same,Mean FICI,"E. coli; with Col, isolate 8 E. coli SHV-2",1.54
same,Mean FICI,"E. coli; with Lev, isolate 5 E. coli CTX-M-15",1.05
same,Mean FICI,"E. coli; with Lev, isolate 6 E. coli TEM-4",1.05
same,Mean FICI,"E. coli; with Lev, isolate 7 E. coli SHV-12",1.18
same,Mean FICI,"E. coli; with Lev, isolate 8 E. coli SHV-2",1.11
same,Mean FICI,"E. coli; with Tig, isolate 4 E. coli Basal MICs",1.41
same,Mean FICI,"E. coli; with Tig, isolate 5 E. coli CTX-M-15",1.12
same,Mean FICI,"E. coli; with Tig, isolate 6 E. coli TEM-4",1.27
same,Mean FICI,"E. coli; with Tig, isolate 7 E. coli SHV-12",0.95
same,Mean FICI,"E. coli; with Tig, isolate 8 E. coli SHV-2",1.10
same,Mean FICI,"E. coli; with Tob, isolate 5 E. coli CTX-M-15",1.05
same,Mean FICI,"E. coli; with Tob, isolate 6 E. coli TEM-4",0.99
same,Mean FICI,"E. coli; with Tob, isolate 7 E. coli SHV-12",1.19
same,Mean FICI,"E. coli; with Tob, isolate 8 E. coli SHV-2",0.91
same,Mean FICI,"E. faecalis; with Lev, isolate 25 E. faecalis Basal MICs",1.15
same,Mean FICI,"E. faecalis; with Lev, isolate 26 E. faecalis Basal MICs",1.20
same,Mean FICI,"E. faecalis; with Lev, isolate 27 E. faecalis Basal MICs",0.78
same,Mean FICI,"E. faecalis; with Lzd, isolate 25 E. faecalis Basal MICs",1.72
same,Mean FICI,"E. faecalis; with Lzd, isolate 26 E. faecalis Basal MICs",0.99
same,Mean FICI,"E. faecalis; with Lzd, isolate 27 E. faecalis Basal MICs",1.64
same,Mean FICI,"E. faecalis; with Tig, isolate 25 E. faecalis Basal MICs",1.19
same,Mean FICI,"E. faecalis; with Tig, isolate 26 E. faecalis Basal MICs",0.73
same,Mean FICI,"E. faecalis; with Tig, isolate 27 E. faecalis Basal MICs",1.16
same,Mean FICI,"E. faecalis; with Tob, isolate 25 E. faecalis Basal MICs",0.84
same,Mean FICI,"E. faecalis; with Tob, isolate 26 E. faecalis Basal MICs",0.74
same,Mean FICI,"E. faecalis; with Tob, isolate 27 E. faecalis Basal MICs",0.99
same,Mean FICI,"E. faecalis; with Van, isolate 25 E. faecalis Basal MICs",1.63
same,Mean FICI,"E. faecalis; with Van, isolate 26 E. faecalis Basal MICs",1.18
same,Mean FICI,"E. faecalis; with Van, isolate 27 E. faecalis Basal MICs",1.38
same,Mean FICI,"K. pneumoniae; with Col, isolate 10 K. pneumoniae TEM-4",0.85
same,Mean FICI,"K. pneumoniae; with Col, isolate 11 K. pneumoniae CTX-M-15",1.54
same,Mean FICI,"K. pneumoniae; with Col, isolate 12 K. pneumoniae SHV-12",1.40
same,Mean FICI,"K. pneumoniae; with Col, isolate 14 K. pneumoniae KPC-3",1.05
same,Mean FICI,"K. pneumoniae; with Lev, isolate 9 K. pneumoniae Basal MICs",0.96
same,Mean FICI,"K. pneumoniae; with Lev, isolate 10 K. pneumoniae TEM-4",1.13
same,Mean FICI,"K. pneumoniae; with Tig, isolate 11 K. pneumoniae CTX-M-15",0.94
same,Mean FICI,"K. pneumoniae; with Tig, isolate 12 K. pneumoniae SHV-12",0.97
same,Mean FICI,"K. pneumoniae; with Tig, isolate 13 K. pneumoniae KPC-3",1.99
same,Mean FICI,"K. pneumoniae; with Tig, isolate 14 K. pneumoniae KPC-3",0.74
same,Mean FICI,"K. pneumoniae; with Tob, isolate 9 K. pneumoniae Basal MICs",1.55
same,Mean FICI,"K. pneumoniae; with Tob, isolate 10 K. pneumoniae TEM-4",0.64
same,Mean FICI,"K. pneumoniae; with Tob, isolate 11 K. pneumoniae CTX-M-15",1.05
same,Mean FICI,"K. pneumoniae; with Tob, isolate 12 K. pneumoniae SHV-12",1.04
same,Mean FICI,"K. pneumoniae; with Tob, isolate 13 K. pneumoniae KPC-3",1.12
same,Mean FICI,"K. pneumoniae; with Tob, isolate 14 K. pneumoniae KPC-3",0.91
same,Mean FICI,"K. pneumoniae; with Tob, isolate 15 K. pneumoniae KPC-2",1.05
same,Mean FICI,"E. cloacae; with Col, isolate 2 E. cloacae Derepressed AmpC",1.54
same,Mean FICI,"E. cloacae; with Col, isolate 3 E. cloacae Derepressed AmpC",1.12
same,Mean FICI,"E. cloacae; with Lev, isolate 2 E. cloacae Derepressed AmpC",0.99
same,Mean FICI,"E. cloacae; with Lev, isolate 3 E. cloacae Derepressed AmpC",0.81
same,Mean FICI,"E. cloacae; with Tig, isolate 2 E. cloacae Derepressed AmpC",0.93
same,Mean FICI,"E. cloacae; with Tig, isolate 3 E. cloacae Derepressed AmpC",1.05
same,Mean FICI,"E. cloacae; with Tob, isolate 3 E. cloacae Derepressed AmpC",0.73
same,Mean FICI,"S. aureus; with Lev, isolate 22 S. aureus Basal MICs",0.98
same,Mean FICI,"S. aureus; with Lev, isolate 23 S. aureus Basal MICs, Penicillinase+",1.46
same,Mean FICI,"S. aureus; with Lev, isolate 24 S. aureus Basal MICs, Penicillinase +",1.21
same,Mean FICI,"S. aureus; with Lzd, isolate 22 S. aureus Basal MICs",1.43
same,Mean FICI,"S. aureus; with Lzd, isolate 23 S. aureus Basal MICs, Penicillinase+",1.10
same,Mean FICI,"S. aureus; with Lzd, isolate 24 S. aureus Basal MICs, Penicillinase +",1.32
same,Mean FICI,"S. aureus; with Tig, isolate 22 S. aureus Basal MICs",1.13
same,Mean FICI,"S. aureus; with Tig, isolate 23 S. aureus Basal MICs, Penicillinase+",1.27
same,Mean FICI,"S. aureus; with Tig, isolate 24 S. aureus Basal MICs, Penicillinase +",1.11
same,Mean FICI,"S. aureus; with Tob, isolate 22 S. aureus Basal MICs",1.60
same,Mean FICI,"S. aureus; with Tob, isolate 23 S. aureus Basal MICs, Penicillinase+",0.86
same,Mean FICI,"S. aureus; with Tob, isolate 24 S. aureus Basal MICs, Penicillinase +",0.84
same,Mean FICI,"S. aureus; with Van, isolate 22 S. aureus Basal MICs",1.23
same,Mean FICI,"S. aureus; with Van, isolate 23 S. aureus Basal MICs, Penicillinase+",0.99
same,Mean FICI,"S. aureus; with Van, isolate 24 S. aureus Basal MICs, Penicillinase +",1.24
same,MIC,"Pseudomonas aeruginosa; P. aeruginosa isolate no. 1, CAZ-AVI determined at 4 mg/L avibactam",128 µg/mL
same,MIC,"Pseudomonas aeruginosa; P. aeruginosa isolate no. 11, CAZ-AVI determined at 4 mg/L avibactam",128 µg/mL
same,MIC,Pseudomonas aeruginosa; Pseudomonas aeruginosa,128 µg/mL
same,MIC,"Pseudomonas aeruginosa; Pseudomonas aeruginosa, P. aeruginosa isolate no. 3, CAZ-AVI determined at 4 mg/L avibactam, read-out: MIC",64 µg/mL
same,MIC,"Pseudomonas aeruginosa; Pseudomonas aeruginosa, P. aeruginosa isolate no. 7, CAZ-AVI determined at 4 mg/L avibactam, read-out: MIC",64 µg/mL
same,MIC,"Pseudomonas aeruginosa; Pseudomonas aeruginosa, P. aeruginosa isolate no. 18, CAZ-AVI determined at 4 mg/L avibactam, read-out: MIC",32 µg/mL
same,MIC,"Pseudomonas aeruginosa; Pseudomonas aeruginosa, P. aeruginosa isolate no. 19, CAZ-AVI determined at 4 mg/L avibactam, read-out: MIC",64 µg/mL
